Assay results published in patent US4341895A (priority 1981, dated 1982).

Columns and labels:
[1] = in vivo; cited from earlier work
[2] = Tail Flick (analgesic agonist activity); format: in vivo; details: sc; rat, as free base; tested as p-toluenesulfonate salt
[3] = tested on: Bradykinin; assay: Bradykinin analgesic test; format: in vivo; details: rat
Excerpt: (§1) The compounds of formula I and their acid-addition salts are useful as analgesic agents, as determined by standard tests performed on the compounds of formula I where R is ethoxycarbonyl and propionyl in the form of their p-toluenesulfonate salts.
(§2) ^a All activities are expressed in mg/kg s.c., free base.
^f G. Deffenu, L. Pegrassi and B. Lumachi, J. Pharm. Pharmacol. 18,
135 (1966); B. A. Berkowitz and E. L. Way, J. Pharmacol. Exp. Ther. 177,

[4] = tested on: phenazocine; assay: Antagonist activity vs. phenazocine; format: in vivo; details: rat, s.c., as free base; doses in parentheses; tested as p-toluenesulfonate salt
[5] = Straub Tail observation; format: in vivo; details: mouse, s.c.; for locomotor activity (footnote i to Straub Tail): at 75 mg/kg (R = C2 H5 COO) or 30 & 60 mg/kg (R = C2 H5 CO)
Excerpt: as §1, §2

[6] = tested on: ACh; assay: ACh (acetylcholine) analgesic test, procedure of Collier et al.; format: in vivo; details: sc; mouse, as free base; range in parentheses; tested as p-toluenesulfonate salt
Excerpt: as §1, §2
^e Procedure (in mouse) of H.O.J. Collier, L. C. Dineen, C. A. Johnso
and C. Schneider, Br. J. Pharmacol. Chemother. 32, 295 (1968).

| SMILES | analgesic activity [1] | ED50 [2] | depression (footnote h to Bradykinin ED50) ([3]; 10 mg/kg s.c.) | depression (footnote h to Bradykinin ED50) ([3]; 20 and 30 mg/kg s.c.) | ED50 ([3]; sc, as free base, range in parentheses, tested as p-toluenesulfonate salt) | Antagonist activity vs. phenazocine [4] | Straub Tail (dose) ([5]; as free base, tested as p-toluenesulfonate salt) | locomotor activity (footnote i to Straub Tail) [5] | ED50 [6] |
| --- | --- | --- | --- | --- | --- | --- | --- | --- | --- |
| CN1[C@@H]2CC[C@H]1CC(C(=O)O)(c1ccccc1)C2 (stereo partly shown) [3-phenyl-3-carboxytropane] | reported to have analgesic activity | – | – | – | – | – | – | – | – |
| CCOC(=O)N1[C@@H]2CC[C@H]1[C@H](O)[C@@H](NCc1ccccc1)C2 (relative stereo) [I (R = C2 H5 COO), Ethyl 3α-benzylamino-2β-hydroxy-1αH,5αH-nortropane-8-carboxylate] | – | 56 ± 4 mg/kg | Mild depression | depression | 21 mg/kg | inactive (10 & 80) | 75 mg/kg | Increased locomotor activity | 6.9 mg/kg |
| CCC(=O)N1[C@@H]2CC[C@H]1[C@H](O)[C@@H](NCc1ccccc1)C2 (relative stereo) [I (R = C2 H5 CO), 3α-Benzylamino-8-propionyl-1αH,5αH-nortropan-2β-ol] | – | 44 ± 3.5 mg/kg | – | – | – | inactive (10) | – | Increased locomotor activity | 16 mg/kg |
